Laboratory results taken from paper PMC4509821 (International journal of antimicrobial agents, 2015).
Values after ≈ are worked out from the molar mass of the structure shown.

Tests used:
[1] = tested on: Streptococcus mutans UA159; assay: Streptococcus mutans cell growth inhibition; format: cell-based
[2] = tested on: Streptococcus sanguinis SK36; assay: Streptococcus sanguinis cell growth and biofilm formation; format: cell-based; settings: 1.56 μM, P > 0.05
[3] = tested on: Streptococcus gordonii DL1; assay: Streptococcus gordonii cell growth and biofilm formation; format: cell-based; settings: 1.56 μM, P > 0.05
S. mutans biofilm = assay: Streptococcus mutans biofilm formation inhibition; format: cell-based; settings: 16 h, read-out: IC50 Biofilm
[4] = target: S. mutans dihydrofolate reductase (SmDHFR) (Streptococcus mutans, UniProt Q8DUI2); assay: SmDHFR enzymatic activity assay; format: biochemical

For `COc1cc(NCc2ccc3nc(N)nc(N)c3c2C)cc(OC)c1OC` [TMQ, trimetrexate], the MIC ([1]; UA159) was 0.0488 µM (≈ 0.018 µg/mL), the IC50 ([1]; UA159, read-out: IC50 Growth) was 42.5 ± 3.22 nM and the “inhibition of biofilm formation of S. sanguinis” value [2] was “did not inhibit”. For the same compound, the “inhibition of biofilm formation of S. gordonii” value [3] was “did not inhibit”, the IC50 (S. mutans biofilm) was 49.1 ± 4.1 nM and the IC50 [4] was 2.2 ± 0.7 nM. It also gave a Ki [4] of 1.3 ± 0.4 nM.
